Results as given in patent US20090069623A1, “METHODS AND COMPOSITIONS FOR TREATMENT OR PREVENTION OF RADIATION-INDUCED FIBROSIS” (Virginia Commonwealth University Intellectual Property …, priority 2007, published 2009).

What was measured:
Assay type in all cases: cell-based, human
CTGF, fibronectin [1] = experiment: Western blot of irradiated HFL-1 cells treated with HMG-CoA inhibitors; conditions: 5 Gy, three days, FIG. 8C; for amount of CTGF detected in the cell lysate (CL): HMG-CoA inhibitor pretreatment 6 hours
Description: For statin treatment experiments, cells were grown overnight in 35 mm plates (6-well plates were also used in some studies) to form a 75-80% confluent monolayer. The cells were then washed with PBS, and the media was changed to SFM (800 μL).
(§1) Harvesting Culture Media and Cell Lystates. For analysis of extracellular CTGF, fibronectin, and α-tubulin, cell culture media was collected, centrifuged to remove cellular debris, aliquoted, and frozen at −70° C. until ready for use. For analysis of intracellular CTGF, fibronectin, and α-tubulin, cell lysates were harvested using 200 μL of HBSST lysis buffer (HBSS containing 1 mM MgSO4, 1 mM CaCl2, 4 mM NaHCO3, 0.5% Triton X-100, protease inhibitor cocktail). Cellular debris was removed by centrifugation.
Western blot analysis of HFL-1 whole cell proteins. […] Primary antibodies for CTGF and fibronectin were diluted at 1:600 and were incubated at 4° C. overnight with shaking. Primary antibodies for α-tubulin were diluted at 1:4,000 and were incubated at 4° C. overnight with shaking. Corresponding secondary antibodies were diluted at 1:6,000 and were incubated at room temperature for 1 hour with shaking. After washing the blot, the antibodies were detected by the enhanced chemiluminescence method (PerkinElmer Life Sciences Inc.).
Cells were harvested, and cell lysates were separated by SDS-PAGE. The separated proteins were then transferred to nitrocellulose, and Western immunoblotting was performed with antibodies specific for CTGF, fibronectin, and α-tubulin. […] As a control for protein loading, α-tubulin expression in HFL-1 cells was also determined.
Cells were harvested, and cell lysates were separated by SDS-PAGE. The separated proteins were then transferred to nitrocellulose, and Western immunoblotting was performed with antibodies specific for CTGF, fibronectin, and α-tubulin. FIG. 8C is a Western blot of HFL-1 cells exposed to radiation and treated with HMG-CoA inhibitors.

CTGF, fibronectin [2] = experiment: Western blot of HDF cells treated with TGF-β1; conditions: three days after TGF-β1, FIG. 9B
Description: (§2) Cell Culture and Treatment. Normal human fetal lung fibroblasts (HFL-1) were purchased from the American Type Culture Collection (ATCC Number: CCL-153) and cultured in Ham's F12K medium (American Type Culture Collection) supplemented with 2 mM L-glutamine adjusted to contain 1.5 g/L sodium bicarbonate and 10% fetal bovine serum. Cells were maintained in humidified 5% CO2 at 37° C. Human dermal fibroblasts (HDF), derived from the dermis of normal human adult skin, were purchased from Invitrogen, Inc. and cultured in Medium-106 (Invitrogen, Inc., Catalogue No. M-106-500) containing LSGS Kit (Invitrogen, Inc., Catalogue No. S-003-K) prior to use. After reaching 75-80% confluence, the medium was changed to serum free medium (SFM) for irradiation with different dose 1Gy, 2.5Gy, 5Gy, 7.5Gy and 10 Gy by using ^137Se. […]
Harvesting Culture Media and Cell Lystates. For analysis of extracellular CTGF, fibronectin, and α-tubulin, cell culture media was collected, centrifuged to remove cellular debris, aliquoted, and frozen at −70° C. until ready for use. […]
Western blot analysis of HFL-1 whole cell proteins. […] After washing the blot, the antibodies were detected by the enhanced chemiluminescence method (PerkinElmer Life Sciences Inc.).
Protein expression in HDF cells treated with TGF-β1 was also determined. […] As a control for protein loading, α-tubulin expression in HFL-1 cells was also determined.

[3] = tested on: CTGF, fibronectin (FN), collagen type IV (Col IV) mRNA; experiment: RT-PCR of mRNA expression in HDF cells treated with TGF-β1; conditions: 0 to 25 ng/ml TGF-β1, FIG. 9A
Description: as §2, with “^137Se. Alternatively, cells were treated with 5 ng/ml TGF-β1 (Sigma-Aldrich, Inc., Catalogue No. T7039) to stimulate CTGF production. The cells were then kept for 3 days in humidified 5% CO2 at 37° C. and subjected to Western immunoblot.^1 ^1What are the culture conditions (e.g., media) for M12 cells used in FIG. 3?” for “^137Se.”
Human dermal fibroblasts (HDF) were treated with varying concentrations of TGF-β1, ranging from 0 ng/ml to 25 ng/ml, […]. […] FIG. 9A is an agarose gel of RT-PCR products detected in HDF cells following a six (6) hour treatment with TGF-β1.

CTGF, fibronectin [4] = experiment: Western blot of HFL-1 cells treated with TGF-β1
Description: Cell Culture and Treatment. Normal human fetal lung fibroblasts (HFL-1) were purchased from the American Type Culture Collection (ATCC Number: CCL-153) and cultured in Ham's F12K medium (American Type Culture Collection) supplemented with 2 mM L-glutamine adjusted to contain 1.5 g/L sodium bicarbonate and 10% fetal bovine serum. Cells were maintained in humidified 5% CO2 at 37° C. Human dermal fibroblasts (HDF), derived from the dermis of normal human adult skin, were purchased from Invitrogen, Inc. and cultured in Medium-106 (Invitrogen, Inc., Catalogue No. M-106-500) containing LSGS Kit (Invitrogen, Inc., Catalogue No. S-003-K) prior to use. After reaching 75-80% confluence, the medium was changed to serum free medium (SFM) for irradiation with different dose 1Gy, 2.5Gy, 5Gy, 7.5Gy and 10 Gy by using ^137Se. Alternatively, cells were treated with 5 ng/ml TGF-β1 (Sigma-Aldrich, Inc., Catalogue No. T7039) to stimulate CTGF production. […] 3?
as §1
Western blot analysis of HFL-1 whole cell proteins. The primary antibodies that selectively recognized CTGF (sc-14939) and fibronectin (sc-9068) were purchased from Santa Cruz Biotechnology, Inc., and primary antibodies that selectively recognized α-tubulin (T 9026) were purchased from Sigma. […] After washing the blot, the antibodies were detected by the enhanced chemiluminescence method (PerkinElmer Life Sciences Inc.).
Protein expression in HFL-1 cells treated with TGF-β1 was also determined. […] As a control for protein loading, α-tubulin expression in HFL-1 cells was also determined.

[5] = tested on: CTGF, fibronectin (FN), collagen type IV (Col IV) mRNA; experiment: RT-PCR of mRNA expression in HFL-1 cells treated with TGF-β1; conditions: 0 to 25 ng/ml TGF-β1, six hour treatment, FIG. 5A
Description: Cell Culture and Treatment. Normal human fetal lung fibroblasts (HFL-1) were purchased from the American Type Culture Collection (ATCC Number: CCL-153) and cultured in Ham's F12K medium (American Type Culture Collection) supplemented with 2 mM L-glutamine adjusted to contain 1.5 g/L sodium bicarbonate and 10% fetal bovine serum. Cells were maintained in humidified 5% CO2 at 37° C. Human dermal fibroblasts (HDF), derived from the dermis of normal human adult skin, were purchased from Invitrogen, Inc. and cultured in Medium-106 (Invitrogen, Inc., Catalogue No. M-106-500) containing LSGS Kit (Invitrogen, Inc., Catalogue No. S-003-K) prior to use. After reaching 75-80% confluence, the medium was changed to serum free medium (SFM) for irradiation with different dose 1Gy, 2.5Gy, 5Gy, 7.5Gy and 10 Gy by using ^137Se. Alternatively, cells were treated with 5 ng/ml TGF-β1 (Sigma-Aldrich, Inc., Catalogue No. T7039) to stimulate CTGF production. The cells were then kept for 3 days in humidified 5% CO2 at 37° C. and subjected to Western immunoblot.^1 ^1What are the culture conditions (e.g., media) for M12 cells used in FIG. 3? […]
Normal human fetal lung fibroblasts (HFL-1) were treated with varying concentrations of TGF-β1, ranging from 0 ng/ml to 25 ng/ml. […] FIG. 5A is an agarose gel of RT-PCR products detected in HFL-1 cells following a six (6) hour treatment with TGF-β1.

[6] = three days after TGF-β1, FIG. 5B

CC[C@H](C)C(=O)O[C@H]1CCC=C2C=C[C@H](C)[C@H](CC[C@@H]3C[C@@H](O)CC(=O)O3)C21 (stereo partly drawn) [mevastatin, (2S)-2-methyl-butanoic acid(1S,7S,8S,8aR)-1,2,3,7,8,8a-hexahydro-7-methyl-8-[2-[(2R,4R)-tetrahydro-4-hydroxy-6-oxo-2H-pyran-2-yl]ethyl]-1-naphthale-nylester]
amount of CTGF detected in the cell lysate (CL) (CTGF, fibronectin [1]): decreased as the amount of HMG-CoA inhibitor increased

TGF-β1: Cytokine used to stimulate CTGF production (Sigma-Aldrich, Inc., Catalogue No. T7039)
amount of CTGF in culture medium (CM) and cell lysate (CL) (CTGF, fibronectin [2]): increased as the amount of TGF-β1 increased
fibronectin protein expression (CTGF, fibronectin [2]): same increase in protein expression
expression of CTGF, FN, and Col IV mRNA [3]: increased as the concentration of TGF-β1 increased
CTGF expression (CTGF, fibronectin [4]; 5 ng/ml TGF-β1 for 4 days, FIG. 1): increased
amount of CTGF in culture medium (CM) and cell lysate (CL) (CTGF, fibronectin [4]; [6]): increased as the amount of TGF-β1 increased
fibronectin protein expression (CTGF, fibronectin [4]; [6]): same increase in protein expression
expression of CTGF, FN, and Col IV mRNA [5]: increased as the concentration of TGF-β1 increased

CC[C@H](C)C(=O)O[C@H]1C[C@H](O)C=C2C=C[C@H](C)[C@H](CC[C@@H](O)C[C@@H](O)CC(=O)O)[C@H]21 [pravastatin, (βR,δR,1S,2S,6S,8S,8aR)-1,2,6,7,8,8a-hexahydro-β,δ,-6-trihydroxy-2-methyl-8-[(2S)-2-methyl-1-oxobutoxy]-1-naphthalene-heptanoic acid]
amount of CTGF detected in the cell lysate (CL) (CTGF, fibronectin [1]): decreased as the amount of HMG-CoA inhibitor increased

(2S)-2-methyl-butanoic acid(1S,3R,7S,8S,8aR)-1,2,3,7,8,8a-hexahydro-3,7-dimethyl-8-[2-[(2R,4R)-tetrahydro-4-hydroxy-6-oxo-2H-pyran-2-yl]ethyl]-1-na-phthalenylester [mevinolin]
amount of CTGF detected in the cell lysate (CL) (CTGF, fibronectin [1]): decreased as the amount of HMG-CoA inhibitor increased

CCOP(=O)(OCC)C(=Cc1cc(C(C)(C)C)c(O)c(C(C)(C)C)c1)P(=O)(OCC)OCC [SR12813]
amount of CTGF detected in the cell lysate (CL) (CTGF, fibronectin [1]): decreased as the amount of HMG-CoA inhibitor increased
inhibitory effects on radiation-induced CTGF relative to other HMG-CoA inhibitors (CTGF, fibronectin [1]; pretreatment 6 hours): reduced relative to the inhibitory effects of simvastatin, pravastatin, lovastatin, mevinolin, and mevastatin
